System: 777334-354-R2-J4-PDC tumor spheroids with HUVEC/MSC, viability
Assay: Anticancer human tumor 777334-354-R2-J4-PDC patient-derived pancreatic adenocarcinoma cell line growth inhibition [GQUAD]
Details: for IC50: curve of first compound; for viability, T/C: stronger effect = lower value
How it was run: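 Viability of tumor cells grown as complex spheroids with endothelial and stromal cells, exposed to drug combinations. Top concentration at or near clinical Cmax (else 10 microM), diluted in half-log increments.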

[1] = second compound 0.0316 µM, first compound 0.0316 µM
[2] = second compound 0.0316 µM, first compound 0.1 µM
[3] = second compound 0.0316 µM, first compound 0.316 µM
[4] = second compound 0.0316 µM, first compound 1 µM
[5] = second compound 0.0316 µM, first compound 3.16 µM
[6] = second compound 0.0316 µM, first compound 10 µM
[7] = second compound 0.1 µM, first compound 0.0316 µM
[8] = second compound 0.1 µM, first compound 0.1 µM
[9] = second compound 0.1 µM, first compound 0.316 µM
[10] = second compound 0.1 µM, first compound 1 µM
[11] = second compound 0.1 µM, first compound 3.16 µM
[12] = second compound 0.1 µM, first compound 10 µM
[13] = second compound 0.316 µM, first compound 0.0316 µM
[14] = second compound 0.316 µM, first compound 0.1 µM
[15] = second compound 0.316 µM, first compound 0.316 µM
[16] = second compound 0.316 µM, first compound 1 µM
[17] = second compound 0.316 µM, first compound 3.16 µM
[18] = second compound 0.316 µM, first compound 10 µM
[19] = second compound 1 µM, first compound 0.0316 µM
[20] = second compound 1 µM, first compound 0.1 µM
[21] = second compound 1 µM, first compound 0.316 µM
[22] = second compound 1 µM, first compound 1 µM
[23] = second compound 1 µM, first compound 3.16 µM
[24] = second compound 1 µM, first compound 10 µM
[25] = second compound 3.16 µM, first compound 0.0316 µM
[26] = second compound 3.16 µM, first compound 0.1 µM
[27] = second compound 3.16 µM, first compound 0.316 µM
[28] = second compound 3.16 µM, first compound 1 µM
[29] = second compound 3.16 µM, first compound 3.16 µM
[30] = second compound 3.16 µM, first compound 10 µM
[31] = second compound 10 µM, first compound 0.0316 µM
[32] = second compound 10 µM, first compound 0.1 µM
[33] = second compound 10 µM, first compound 0.316 µM
[34] = second compound 10 µM, first compound 1 µM
[35] = second compound 10 µM, first compound 3.16 µM
[36] = second compound 10 µM, first compound 10 µM
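Further: spheroids exposed to compounds for 7 days before readout.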

In the case of `COc1cccc2c1C(=O)c1c(O)c3c(c(O)c1C2=O)CC(O)(C(=O)CO)CC3OC1CC(N)C(O)C(C)O1` (stereo unspecified) + Cc1[nH]c2ccc(F)cc2c1-c1nc2c3cccnc3c3ncccc3c2[nH]1, the IC50 (second compound 0.0316 µM) is reported as 915 nM, the IC50 (second compound 0.1 µM) is reported as 878 nM and the IC50 (second compound 0.316 µM) is reported as 923 nM. For the same compound, the IC50 (second compound 1 µM) was 646 nM, the IC50 (second compound 3.16 µM) was under 31.6 nM and the IC50 (second compound 10 µM) was under 31.6 nM. The viability, T/C [1] was 102%, the viability, T/C [2] was 83.2% and the viability, T/C [3] was 80.3%. For the same compound, the viability, T/C [4] was 47.1%, the viability, T/C [5] was 22.8% and the viability, T/C [6] was 15%. The viability, T/C [7] was 93.3%, the viability, T/C [8] was 80.5% and the viability, T/C [9] was 69.6%. For the same compound, the viability, T/C [10] was 49.2%, the viability, T/C [11] was 25.2% and the viability, T/C [12] was 14.9%. The viability, T/C [13] was 74.8%, the viability, T/C [14] was 82.6% and the viability, T/C [15] was 71.2%. For the same compound, the viability, T/C [16] was 46.8%, the viability, T/C [17] was 28.4% and the viability, T/C [18] was 17.4%. For the same compound, the viability, T/C [19] was 74.8%, the viability, T/C [20] was 75.8% and the viability, T/C [21] was 61.1%. It also gave a viability, T/C [22] of 42.9%, a viability, T/C [23] of 22.5% and a viability, T/C [24] of 13.6%. The viability, T/C [25] was 40.4%, the viability, T/C [26] was 27.8% and the viability, T/C [27] was 24.8%. The viability, T/C [28] was 16.7%, the viability, T/C [29] was 13.9% and the viability, T/C [30] was 9.55%. The viability, T/C [31] was 32%, the viability, T/C [32] was 23% and the viability, T/C [33] was 22.6%. The viability, T/C [34] was 16.5%, the viability, T/C [35] was 14.9% and the viability, T/C [36] was 10.9%.

Work on `C#Cc1c(F)ccc2cc(O)cc(-c3ncc4c(N5CC6CCC(C5)N6)nc(OCC56CCCN5CC(F)C6)nc4c3F)c12` (stereo unspecified) + CN(C)c1ccc(Nc2c3ccc(NC(=O)CCN4CCCC4)cc3nc3cc(NC(=O)CCN4CCCC4)ccc23)cc1 yielded an IC50 (second compound 0.0316 µM) of 33.7 nM, an IC50 (second compound 0.1 µM) of 36.1 nM and an IC50 (second compound 0.316 µM) of under 31.6 nM. It also gave an IC50 (second compound 1 µM) of under 31.6 nM, an IC50 (second compound 3.16 µM) of under 31.6 nM and an IC50 (second compound 10 µM) of under 31.6 nM. For the same compound, the viability, T/C [1] was 51%, the viability, T/C [2] was 38.9% and the viability, T/C [3] was 29.8%. For the same compound, the viability, T/C [4] was 31.2%, the viability, T/C [5] was 30.1% and the viability, T/C [6] was 22.6%. It also gave a viability, T/C [7] of 52.3%, a viability, T/C [8] of 38.7% and a viability, T/C [9] of 34.3%. For the same compound, the viability, T/C [10] was 28.4%, the viability, T/C [11] was 29.1% and the viability, T/C [12] was 21.5%. The viability, T/C [13] was 46.9%, the viability, T/C [14] was 35% and the viability, T/C [15] was 36%. For the same compound, the viability, T/C [16] was 29%, the viability, T/C [17] was 26.5% and the viability, T/C [18] was 22.4%. It also gave a viability, T/C [19] of 37.1%, a viability, T/C [20] of 38% and a viability, T/C [21] of 31.4%. It also gave a viability, T/C [22] of 27.8%, a viability, T/C [23] of 25.4% and a viability, T/C [24] of 23.7%. For the same compound, the viability, T/C [25] was 38.6%, the viability, T/C [26] was 34.4% and the viability, T/C [27] was 32%. The viability, T/C [28] was 24.2%, the viability, T/C [29] was 22.6% and the viability, T/C [30] was 17.8%. For the same compound, the viability, T/C [31] was 36.3%, the viability, T/C [32] was 32.3% and the viability, T/C [33] was 27.5%. The viability, T/C [34] was 19.6%, the viability, T/C [35] was 15.2% and the viability, T/C [36] was 10.3%.

`O=C(c1cc(Cc2n[nH]c(=O)c3ccccc23)ccc1F)N1CCN(C(=O)C2CC2)CC1` + CN(C)c1ccc(Nc2c3ccc(NC(=O)CCN4CCCC4)cc3nc3cc(NC(=O)CCN4CCCC4)ccc23)cc1 gave an IC50 (second compound 0.0316 µM) of over 10000 nM, an IC50 (second compound 0.1 µM) of over 10000 nM and an IC50 (second compound 0.316 µM) of over 10000 nM. It also gave an IC50 (second compound 1 µM) of over 10000 nM, an IC50 (second compound 3.16 µM) of over 10000 nM and an IC50 (second compound 10 µM) of over 10000 nM. It also gave a viability, T/C [1] of 97.1%, a viability, T/C [2] of 104% and a viability, T/C [3] of 104%. It also gave a viability, T/C [4] of 86%, a viability, T/C [5] of 84% and a viability, T/C [6] of 74.3%. It also gave a viability, T/C [7] of 88%, a viability, T/C [8] of 82.6% and a viability, T/C [9] of 93.5%. The viability, T/C [10] was 92.1%, the viability, T/C [11] was 88.5% and the viability, T/C [12] was 72.5%. For the same compound, the viability, T/C [13] was 80.6%, the viability, T/C [14] was 94.9% and the viability, T/C [15] was 97.2%. For the same compound, the viability, T/C [16] was 81%, the viability, T/C [17] was 94.1% and the viability, T/C [18] was 66.7%. It also gave a viability, T/C [19] of 84.9%, a viability, T/C [20] of 89.8% and a viability, T/C [21] of 86.7%. It also gave a viability, T/C [22] of 86.2%, a viability, T/C [23] of 80.4% and a viability, T/C [24] of 65.4%. The viability, T/C [25] was 79.7%, the viability, T/C [26] was 81.7% and the viability, T/C [27] was 68.3%. For the same compound, the viability, T/C [28] was 76.2%, the viability, T/C [29] was 82.6% and the viability, T/C [30] was 69.1%. For the same compound, the viability, T/C [31] was 64.7%, the viability, T/C [32] was 76.7% and the viability, T/C [33] was 76.4%. For the same compound, the viability, T/C [34] was 81%, the viability, T/C [35] was 71% and the viability, T/C [36] was 66.9%.
